# Molecular target: T1, human Edg-1 receptor (Homo sapiens, UniProt P21453)
# T1 construct: expressed in transfected cells; membrane preparation
# Test: GTP-γ-S assay using human Edg-1 receptors (scintillation proximity assay, membrane preparation from CHO Flp-In cell line)
# Type: biochemical
# Details: example compound at 10 μM; relative to 10 μM S1P; GTP-γ-S SPA, human Edg-1 membranes
# Summary of the method: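 Scintillation proximity GTP-γ-S binding assay measuring receptor activation. Membranes prepared from a CHO Flp-In line stably overexpressing N-terminally FLAG-tagged human Edg-1.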
# T1 sequence (P21453 whole entry): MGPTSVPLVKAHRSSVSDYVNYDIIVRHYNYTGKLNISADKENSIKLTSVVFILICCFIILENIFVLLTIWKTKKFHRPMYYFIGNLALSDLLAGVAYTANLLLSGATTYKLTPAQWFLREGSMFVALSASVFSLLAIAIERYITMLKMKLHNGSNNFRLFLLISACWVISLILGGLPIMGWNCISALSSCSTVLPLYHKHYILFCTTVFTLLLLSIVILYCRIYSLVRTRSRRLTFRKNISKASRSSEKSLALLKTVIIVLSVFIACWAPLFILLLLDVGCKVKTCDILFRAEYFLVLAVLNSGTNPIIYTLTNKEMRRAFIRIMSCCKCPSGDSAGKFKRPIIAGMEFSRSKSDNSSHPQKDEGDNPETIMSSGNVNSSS
row,Compound,% Activation (Edg-1 receptor activation in percent of the activation by 10 μM S1P) [%]
1,CCOc1nc(Cc2ccc(Cl)cc2)nc2oc(-c3cc(C)c(OCC(=O)NCCC(=O)OC(C)(C)C)c(C)c3)nc12 [Example 255],74
2,CCCOc1nc(Cc2ccc(Cl)cc2)nc2oc(-c3cc(C)c(OCC(=O)NCC(=O)OC(C)(C)C)c(C)c3)nc12 [Example 256],69
3,CCOc1nc(Cc2ccc(Cl)cc2)nc2oc(-c3cc(C)c(OCC(O)CNCc4ccccc4)c(C)c3)nc12 (stereo not shown) [Example 257],122
4,CCOc1nc(Cc2ccc(Cl)cc2)nc2oc(-c3cc(C)c(OCC(O)CNC(=O)CO)c(C)c3)nc12 (stereo not shown) [Example 258],97
5,CCOc1nc(Cc2ccc(Cl)cc2)nc2oc(-c3cc(C)c(OCC(O)CN(C(C)C)C(C)C)c(C)c3)nc12 (stereo not shown) [Example 259],66
6,CCOc1nc(Cc2ccc(Cl)cc2)nc2oc(-c3cc(C)c(OCC(O)CNC(=O)C4(O)CC4)c(C)c3)nc12 (stereo not shown) [Example 260],95
7,CCOc1nc(Cc2ccc(Cl)cc2)nc2oc(-c3cc(C)c(OCC(O)CNC4CCC(C(F)(F)F)CC4)c(C)c3)nc12 (stereo not shown) [Example 261],86
8,CCOc1nc(Cc2ccc(Cl)cc2)nc2oc(-c3cc(C)c(OCC(O)CNC4CCN(CC(C)C)CC4)c(C)c3)nc12 (stereo not shown) [Example 262],43
9,CCOc1nc(Cc2ccc(Cl)cc2)nc2oc(-c3cc(C)c(OCC(O)CN)c(C)c3)nc12 (stereo not shown) [Example 263],138
10,CCOc1nc(Cc2ccc(Cl)cc2)nc2oc(-c3cc(C)c(OCC(O)CN(C)C)c(C)c3)nc12 (stereo not shown) [Example 264],55
11,CCOc1nc(Cc2ccc(Cl)cc2)nc2oc(-c3cc(C)c(OCC(O)CNC4CCC(C)CC4)c(C)c3)nc12 (stereo not shown) [Example 265],132
12,CCOc1nc(Cc2ccc(Cl)cc2)nc2oc(-c3cccc(OCC(=O)NCCN4CCOCC4)c3)nc12 [Example 266],52
13,CCOc1nc(Cc2ccc(Cl)cc2)nc2oc(-c3cccc(OCC(=O)NCC(=O)O)c3)nc12 [Example 267],72
14,CCOc1nc(Cc2ccc(Cl)cc2)nc2oc(-c3cccc(OCC(=O)N[C@@H](C)C(=O)O)c3)nc12 [Example 268],100
15,CCOc1nc(Cc2ccc(Cl)cc2)nc2oc(-c3cccc(OCC(=O)N4CCC[C@@H]4C(=O)O)c3)nc12 [Example 269],69
16,CCOc1nc(Cc2ccc(Cl)cc2)nc2oc(-c3cccc(OCC(=O)N4CCC[C@H]4C(=O)O)c3)nc12 [Example 270],104
17,CCOc1nc(Cc2ccc(Cl)cc2)nc2oc(-c3cccc(OCC(=O)NC(C)(C)C(=O)O)c3)nc12 [Example 271],53
18,CCOc1nc(Cc2ccc(Cl)cc2)nc2oc(-c3cc(C)c(OCC(O)CS(=O)(=O)c4nnc(C)[nH]4)c(C)c3)nc12 (stereo not shown) [Example 272],105
19,CCOc1nc(Cc2ccc(Cl)cc2)nc2oc(-c3ccc(O)c(F)c3)nc12 [Example 273],106
20,CCOc1nc(Cc2ccc(Cl)cc2)nc2oc(-c3cc(C)c(OCCCS(=O)(=O)c4nnc(C5CC5)[nH]4)c(C)c3)nc12 [Example 274],120
21,CCOc1nc(Cc2ccc(Cl)cc2)nc2oc(-c3cc(C)c(OCCCS(=O)(=O)c4nnc(C(C)C)[nH]4)c(C)c3)nc12 [Example 275],88
22,CCOc1nc(Cc2ccc(Cl)cc2)nc2oc(-c3cc(C)c(OCCCSc4nnc(C5CC5)[nH]4)c(C)c3)nc12 [Example 276],54
23,CCOc1nc(Cc2ccc(Cl)cc2)nc2oc(-c3ccc(OC)c(F)c3)nc12 [Example 277],49
24,CCOc1nc(Cc2ccc(Cl)cc2)nc2oc(-c3cc(C)c(OCCCS(=O)(=O)c4nnc(C(C)(C)C)[nH]4)c(C)c3)nc12 [Example 278],105
25,CCOc1nc(Cc2ccc(Cl)cc2)nc2oc(-c3ccc(OCC(=O)NCCN4CCOCC4)c(F)c3)nc12 [Example 279],77
26,CCOc1nc(Cc2ccc(Cl)cc2)nc2oc(-c3cc(C)c(OCC(O)CNCCCNS(C)(=O)=O)c(C)c3)nc12 (stereo not shown) [Example 280],53
27,CCOc1nc(Cc2ccc(Cl)cc2)nc2oc(-c3cc(C)c(OCC(O)CSc4nnc(C5CC5)[nH]4)c(C)c3)nc12 (stereo not shown) [Example 281],79
28,CCOc1nc(Cc2ccc(Cl)cc2)nc2oc(-c3cc(C)c(OCC(O)CSc4nnc(C(C)(C)C)[nH]4)c(C)c3)nc12 (stereo not shown) [Example 282],108

row,Compound,% Activation (Edg-1 receptor activation in percent of the activation by 10 μM S1P) [%]
1,CCOc1nc(Cc2ccc(Cl)cc2)nc2oc(-c3cc(C)c(OCC(O)CS(=O)(=O)c4nnc(C(C)(C)C)[nH]4)c(C)c3)nc12 (stereo not shown) [Example 283],92
2,CCOc1nc(Cc2ccc(Cl)cc2)nc2oc(-c3cccc(OC)c3)nc12 [Example 284],103
3,CCOc1nc(Cc2ccc(Cl)cc2)nc2oc(-c3cc(C)c(OCCCNCCc4nc(O)n[nH]4)c(C)c3)nc12 [Example 285],146
4,CCOc1nc(Cc2ccc(Cl)cc2)nc2oc(-c3cc(C)c(OCC(O)C[S+]([O-])c4ncn[nH]4)c(C)c3)nc12 (stereo not shown) [Example 286],114
5,CCOc1nc(Cc2ccc(Cl)cc2)nc2oc(-c3cc(C)c(OCC(=O)NCCS(N)(=O)=O)c(C)c3)nc12 [Example 287],112
6,CCOc1nc(Cc2ccc(Cl)cc2)nc2oc(-c3cc(C)c(OCC(=O)NCCCC(=O)O)c(C)c3)nc12 [Example 288],113
7,CCCOc1nc(Cc2ccc(Cl)cc2)nc2oc(-c3cc(C)c(OCCCN[C@@H](Cc4ccccc4)C(=O)O)c(C)c3)nc12 [Example 289],80
8,CCOc1nc(Cc2ccc(Cl)cc2)nc2oc(-c3cc(C)c(OCC(=O)NCCNS(C)(=O)=O)c(C)c3)nc12 [Example 290],114
9,CCOc1nc(Cc2ccc(Cl)cc2)nc2oc(-c3cc(C)c(OCC(O)CS(=O)(=O)c4ncn[nH]4)c(C)c3)nc12 (stereo not shown) [Example 291],116
10,CCOc1nc(Cc2ccc(Cl)cc2)nc2oc(-c3cc(C)c(OCCC[S+]([O-])c4ncn[nH]4)c(C)c3)nc12 (stereo not shown) [Example 292],86
11,CCOc1nc(Cc2ccc(Cl)cc2)nc2oc(-c3cc(C)c(OCC(O)CSc4ncn[nH]4)c(C)c3)nc12 (stereo not shown) [Example 293],99
12,CCOc1nc(Cc2ccc(Cl)cc2)nc2oc(-c3cc(C)c(OCC(=O)NCC#N)c(C)c3)nc12 [Example 294],83
13,CCOc1nc(Cc2ccc(Cl)cc2)nc2oc(-c3cc(C)c(OCCCS(=O)(=O)c4ncn[nH]4)c(C)c3)nc12 [Example 295],100
14,CCOc1nc(Cc2ccc(Cl)cc2)nc2oc(-c3cc(C)c(OCCCSc4ncn[nH]4)c(C)c3)nc12 [Example 296],52
15,CCOc1nc(Cc2ccc(Cl)cc2)nc2oc(-c3cccc(OCC(=O)N[C@@H](CO)C(=O)O)c3)nc12 [Example 297],99
16,CCOc1nc(Cc2ccc(Cl)cc2)nc2oc(-c3cccc(OCC(=O)NCCC(=O)O)c3)nc12 [Example 298],92
17,CCOc1nc(Cc2ccc(Cl)cc2)nc2oc(-c3cc(C)c(OCC(=O)NCCCNS(C)(=O)=O)c(C)c3)nc12 [Example 299],94
18,CCOc1nc(Cc2ccc(Cl)cc2)nc2oc(-c3cc(C)c(OCC(O)CS(=O)(=O)c4nnc(C5CC5)[nH]4)c(C)c3)nc12 (stereo not shown) [Example 300],89
19,CCOc1nc(Cc2ccc(Cl)cc2)nc2oc(-c3cc(C)c(OCC4(CO)COC4)c(C)c3)nc12 [Example 301],97
20,CCOc1nc(Cc2ccc(Cl)cc2)nc2oc(-c3cccc(O)c3)nc12 [Example 302],103
21,CCCOc1nc(CN2CC[C@@H](F)C2)nc2oc(-c3cccc(F)c3)nc12 [Example 303],104
22,CCCOc1nc(CN2CCCC(C(F)(F)F)C2)nc2oc(-c3cccc(F)c3)nc12 (stereo not shown) [Example 304],102
23,CCCOc1nc(Cc2ccc(Cl)cc2)nc2oc(-c3cc(C)c(OCC(O)CNC(=O)c4ccco4)c(C)c3)nc12 (stereo not shown) [Example 305],103
24,CCCOc1nc(Cc2ccc(Cl)cc2)nc2oc(-c3cc(C)c(OCC(=O)N4CCOCC4)c(C)c3)nc12 [Example 306],81
25,CCCOc1nc(Cc2ccc(Cl)cc2)nc2oc(-c3cc(C)c(OCC(=O)N4CCC[C@H]4C(=O)OC(C)(C)C)c(C)c3)nc12 [Example 307],10
26,CCCOc1nc(Cc2ccc(Cl)cc2)nc2oc(-c3cc(C)c(OCC(O)CNC(=O)C4(O)CC4)c(C)c3)nc12 (stereo not shown) [Example 308],107
27,CCOc1nc(CC2CCCCC2)nc2oc(-c3cccc(C)c3)nc12 [Example 309],104
